Results as given in patent US4359465A, “Methods for treating gastrointestinal inflammation” (The Upjohn Company, priority 1980, dated 1982).

What was measured:
[1] = tested on: ethanol-induced gastric lesions; experiment: Ethanol-induced gastric lesions (80% aqueous ethanol challenge), part A; assay type: in vivo, rat; conditions: rats; for gastric ulceration: oral 0.3, 1, 3, or 10 mg/kg, 30 min before 1 ml 80% ethanol, examined 1 hr later
Protocol: A. Four groups of rats, standard laboratory animals for determining cytoprotective effects of pharmacological agents, are fasted for 24 hr and then treated orally with (a) […], (b) cimetidine, (c) a cytoprotective prostaglandin, or (d) vehicle (10% Emulphor, 10% EtOH, 80% water). Thirty min later, the rats are challenged with an oral 1 ml dose of 80% aqueous ethanol, a standard agent for inducing gastric cytodestruction. One hr later, the rats are sacrificed (carbon dioxide asphyxiation) and the gastric tissues examined.

gastric acid secretion [2] = experiment: Gastric acid secretion inhibition in the rat; assay type: in vivo
[3] = Gastric volume / gastric emptying experiment, part B; assay type: in vivo, rat; conditions: rats, oral 0.01, 0.1, or 1.0 mg/kg; 5, 15, and 30 min after ingestion
Protocol: B. A further experiment is undertaken to rule out gastric emptying as a factor in the cytoprotection observed in part A above. In this experiment timoprazole was given orally at 0.01, 0.1, or 1.0 mg/kg to groups of rats and a further group of rats is treated with vehicle (same as in part A) only. As above, the rats are faster for 24 hr prior to treatment. Groups of rats are then sacrificed 5, 15, and 30 min after timoprazole ingestion. […] Accordingly, flluid accumulation in the stomach is not a factor in the cytoprotection observed in part A.

[4] = tested on: ethanol-induced gastric ulceration; experiment: Ethanol-induced gastric ulceration, less irritant vehicle, lowest dose protecting 50% of animals, part C; assay type: in vivo, rat; conditions: rats
Excerpt: C. […] The rats are sacrificed one hr after timoprazole administration and the extent of gastric ulceration determined.

[5] = tested on: ethanol-induced gastric lesions; experiment: Ethanol challenge with or without indomethacin pretreatment, part D; assay type: in vivo, rat; conditions: timoprazole 5 mg/kg orally, indomethacin 1 hr prior
Protocol: D. Because mild gastric irritants, e.g., 20% ethanol, are known to stimulate endogenous prostaglandin production, with consequent cytoprotection effects being observed, a further experiment is undertaken to determine whether timoprazole acts as a mild irritant (i.e., by stimulating endogenous cytoprotective prostaglandin production), or exerts a directly cytoprotective effect. In this experiment, rats are treated with timoprazole (5 mg/kg orally), but in each group of rats half the animals are pretreated with a NOSAC, indomethacin, 1 hr prior to treatment with timoprazole. One hr after ethanol challenge, the rats are sacrificed. […] Accordingly, the cytoprotective effects of timoprazole are not mediated by endogenous prostaglandin production.

[6] = tested on: thermally induced gastric ulceration; experiment: Thermally induced gastric ulceration (boiling water); assay type: in vivo, rat; conditions: for ulcer incidence score (ulcers/stomach): rats, control score 8.0
gastric acid secretion [7] = experiment: Inhibition of pentagastrin-stimulated gastric acid secretion in conscious gastric fistula dogs; assay type: in vivo; conditions: Canis lupus familiaris, dog, intraduodenal, read-out: Effect % inhibition (peak inhibitory effect on gastric acid secretion)
Protocol: To determine the gastric acid secretion inhibitory properties, experiments have been performed on conscious dogs provided with gastric fistulas of conventional type and duodenal fistules, the latter ones used for direct introduodenal administration of the test compounds. After 18 hours starvation and deprivation of water the dogs were given subcutaneous infusion of pentagastrin (1-4 nmol/kg, h) lasting for 6-7 hours. Gastric juice was collected in consecutive 30 minutes samples. An aliquot of each sample was titrated with 0.1 N NaOH to […] for titrable acid concentration using an automatic titrator and pH-meter (Radiometer, Copenhagen, Denmark). Acid output was calculated as mmol H^+ /60 minutes. The percent inhibition compared to control experiments was calculated for each compound and the peak inhibitory effect is given in Table 2 below. The test compounds, suspended in 0.5% Methocel® (methyl cellulose), were given intraduodenally in doses from 4-20 μmol/kg when the secretory response to pentagastrin has reached a steady level. In the test prior known compounds were compared with the compounds of the present invention as will be evident from the Table 2 below. The following gastric acid inhibiting effect data were obtained for a number of compounds tested according to the method described.

[8] = tested on: Cytoprotection Against Acidified Aspirin; conditions: Robert, Gastroenterology 76:1227 (1979); cited from earlier work
[9] = tested on: Indomethacin-Induced Small Bowel Ulceration; conditions: rat; Kauffman et al. (1979), title; cited from earlier work
gastric secretion = conditions: in vivo; cited from earlier work

[O-][S+](Cc1ccccn1)c1nc2ccccc2[nH]1 (stereo not shown) [timoprazole, 2-[2-pyridylmethylsulfinyl]benzimidazole]
gastric ulceration (dose 0.3 mg/kg) ([1]; oral 0.3 mg/kg, 30 min before 80% ethanol): traces of mild ulceration
gastric ulceration [1]: no gastric ulceration
ED50 (gastric acid secretion [2]; in the rat): ~10 mg/kg
ED50 for gastric acid secretion inhibition relative to lowest cytoprotective dose observed (gastric acid secretion [2]; rat, ratio to lowest cytoprotective dose of part A): at least ten
changes in gastric volume versus vehicle [3]: No significant changes in gastric volume
ED50 ([4]; Rattus norvegicus, read-out: ED50 (lowest dose at which 50% of the animals treated exhibit no gastric ulceration), oral, vehicle 5% EtOH, 1% Emulphor in water): < 1 mg/kg
reduction in ulceration, oral administration ([4]; oral 1, 3, or 10 mg/kg, 30 min before ethanol challenge): significant reduction in ulceration at all dosages tested
reduction of number of ulcers, subcutaneous administration ([4]; subcutaneous 1, 3, or 10 mg/kg, 30 min before ethanol challenge): did not significantly reduce the number of ulcers
difference between rats receiving indomethacin and those not receiving it [5]: no significant difference
ulcer incidence score (ulcers/stomach) ([6]; 0.3 mg/kg): 7.6
ulcer incidence score (ulcers/stomach) ([6]; 1.0 mg/kg): 5.0
ulcer incidence score (ulcers/stomach) ([6]; 3.0 mg/kg): 3.9
ulcer incidence score (ulcers/stomach) ([6]; 10.0 mg/kg): 4.0
incidence and severity of ulcers as compared to vehicle ([6]; rats, 0.3, 1.0, 3.0, and 10.0 mg/kg): uniform reduction in the incidence and severity of ulcers
inhibition in vivo at 4 µmol/kg (gastric acid secretion [7]): 50%

CN/C(=N/CCSCc1nc[nH]c1C)NC#N [cimetidine, N-cyano-N'-methyl-N"[2-[[(5-methyl-1H-imidazol-4-yl)methyl]thio]ethyl]gunanidine]
gastric ulceration [1]: all demonstrate gastric ulcers
number of ulcers ([1]; oral 0.3, 1.0, 3.0 or 10.0 mg/kg, 30 min before 80% ethanol): slight decrease in the number of ulcers
cytoprotective effects [8]: devoid of appreciable cytoprotective effects
inhibition of indomethacin-induced small bowel ulceration [9]: Does Not Inhibit
inhibition of gastric secretion (gastric secretion): highly potent inhibitor of gastric secretion

COC(=O)c1cc2nc([S+]([O-])Cc3cc(OC)c(C)cn3)[nH]c2cc1C (stereo not shown) [compound 18, 2-[2-(4-methoxy-5-methyl)-pyridylmethylsulfinyl]-(5-carbomethoxy-6-methyl)-benzimidazole]
inhibition in vivo at 0.5 µmol/kg (gastric acid secretion [7]; dose 0.5 μol/kg): 90%

Cc1cc(C)c2[nH]c([S+]([O-])Cc3ccccn3)nc2c1 (stereo not shown) [x (4-CH3,6-CH3, H, H, H, H), 2-[2-pyridylmethylsulfinyl]-(4,6-dimethyl)benzimidazole]
inhibition in vivo at 4 µmol/kg (gastric acid secretion [7]): 30%
